Data on 6 compounds can be found in PubChem BioAssay (NCI).

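Test compounds were applied to cells in 96-well plates for 48 hours at 5 doses. GI50 = concentration required for 50% inhibition of growth. The concentration for full growth arrest is given as TGI.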

Holding throughout (assay): inhibition of tumour cell growth, NCI panel, 48 h
Experiment [1] concerns 786-0 renal.
In experiment [2] the test system is A498 renal.
Experiment [3] relates to ACHN renal.
The subject of experiment [4] is HOP-92 NSCLC.
In experiment [5] the test system is MALME-3M melanoma.
For experiment [6], the system named is NCI-H522 lung.
Experiment [7] concerns RXF 393 renal.
Experiment [8] concerns SF-268 CNS.
The test system of experiment [9] is SNB-75 CNS.

Take `C=C1C(=O)O[C@H]2[C@H]1CC/C(CNC(=O)Cc1c[nH]c3ccccc13)=C\CC[C@@]1(C)O[C@@H]21`: the GI50 was 1.22 µM in experiment [1]; 13.8 µM in experiment [2]; 1.11 µM in experiment [3]; 2.17 µM in experiment [4]; 3.42 µM in experiment [5]; 0.365 µM in experiment [6]. The figures for the GI50 in experiment [7], in [8] and in experiment [9] were 1.3 µM, 2.62 µM and 12.8 µM, respectively. Besides, the TGI came out at 4.98 µM in [1]; 26.9 µM in experiment [2]; 11.4 µM in [3]; 5.25 µM in experiment [4]; 7.39 µM in experiment [5]; 1.38 µM in [6]. Also, the TGI in experiment [7] was 5.65 µM; in experiment [8], 16.3 µM; in experiment [9], 35.5 µM.

For `COc1cc2c(cc1O)CC[C@@H]1[C@@H]2CC[C@]2(C)[C@@H](NCCN(C)C)CC[C@@H]12`, the GI50 in experiment [1] was 0.383 µM; in experiment [2] it was 0.164 µM; in experiment [3], 0.459 µM; in [4], 0.124 µM; in [5] it was 0.19 µM; in experiment [6], 0.108 µM. Further, the GI50 in experiment [7] was 0.118 µM; in [8] it was 0.267 µM; in experiment [9], 0.0613 µM. Besides, the TGI in experiment [1] worked out at 0.831 µM; in experiment [2], 0.636 µM; in experiment [3], 0.991 µM; in experiment [4], 0.742 µM; in experiment [5], 0.669 µM; in [6] it was 0.5 µM. Also, the TGI in experiment [7] was determined as 0.48 µM; in [8] it was 0.753 µM; in experiment [9], 0.378 µM.

As for `F`, the GI50 in [1] was 2550 µM; in experiment [2], 1620 µM; in experiment [3] it was 3050 µM; in experiment [4], 1850 µM; in [5], 1920 µM; in experiment [6], 4970 µM. In addition, the GI50 in experiment [7] is 2360 µM; in experiment [8], 3540 µM; in [9], 2160 µM. For the same compound, the TGI in experiment [1] is > 6870 µM; in [2], 4390 µM; in [3], > 6870 µM; in [4], > 6870 µM; in experiment [5], 5060 µM; in experiment [6] it was > 6870 µM. In addition, the TGI in [7] was 5200 µM; in experiment [8], > 6870 µM; in [9], 5570 µM.

As to `Cc1cc2nc(C(C)C(=O)c3ccc(Cl)cc3)c(=O)[nH]c2cc1C` (stereo not given), the TGI in experiment [1] was 92.3 µM; in experiment [2], > 100 µM; in experiment [3], > 100 µM; in experiment [4], > 100 µM; in experiment [5], > 100 µM; in experiment [6], > 100 µM. Besides, the TGI in experiment [7], in experiment [8] and in [9] was > 100 µM in each case.

On to `Nc1c(C(=O)c2cccc(CCCN3CCOCC3)c2)cnn1-c1ccc(F)cc1`, for which the GI50 in experiment [1] was > 25 µM; in [2], > 17.6 µM; in [3], > 25 µM; in experiment [4] it was 7.01 µM; in experiment [5], > 25 µM; in experiment [6], > 25 µM. Also, the GI50 in experiment [7], in experiment [8] and in [9] was > 25 µM in each case. Also, the TGI in experiment [1], in [2], in [3], in experiment [4], in experiment [5] and in experiment [6] was > 25 µM throughout. Besides, the TGI in experiment [7], in experiment [8] and in experiment [9] was > 25 µM in each case.

With `COc1cccc2c1C(=O)C=CC2=O`, the TGI was determined as 23.9 µM in experiment [1]; 29.9 µM in experiment [2]; 10.5 µM in experiment [3]; 3.75 µM in experiment [4]; 30.6 µM in [5]; 5 µM in experiment [6]. Moreover, the TGI was found to be 17.7 µM in experiment [7], 19.8 µM in experiment [8] and 29.9 µM in experiment [9].
